Consider three compounds from ChEMBL document CHEMBL1150951, “New mycalolides from the marine sponge Mycale magellanica and their interconversion” (J Nat Prod, 1998).

The test relates to L1210. In words: Cytotoxicity against mouse L1210 cells. It counts as functional, cell-based.

As usually defined, the IC50 is the concentration at which inhibition is half-maximal. A lower IC50 goes with greater potency in that assay.

Values after ≈ are worked out from the molar mass of the structure shown.

Consider `COC(CO)C(=O)O[C@H](CC[C@H](C)[C@H](C[C@@H]1OC(=O)C[C@@H](O)C/C=C/C(=O)[C@H](C)[C@H](OC)c2coc(n2)-c2coc(n2)-c2coc(n2)/C=C/C[C@H](OC)[C@H]1C)OC)[C@H](C)[C@H](OC(C)=O)[C@H](C)/C=C/N(C)C=O` (stereo partly drawn) [38-HYDROXYMYCALOLIDE B], for which the concentration for half-maximal inhibition (IC50) was 0.015 µg/mL (≈ 0.0148 µM).
In turn, `CO[C@H]1C/C=C/c2nc(co2)-c2nc(co2)-c2nc(co2)[C@@H](OC)[C@@H](C)C(=O)/C=C/C[C@H](O)CC(=O)O[C@@H](C[C@H](OC)[C@@H](C)CCC(O)[C@@H](C)[C@H](OC(C)=O)[C@H](C)/C=C/N(C)C=O)[C@@H]1C` (stereo partly drawn) [30-HYDROXYMYCALOLIDE A] registered an IC50 of 0.019 µg/mL (≈ 0.0209 µM).
To `CO[C@H]1C/C=C/c2nc(co2)-c2nc(co2)-c2nc(co2)[C@@H](OC)[C@@H](C)C(=O)/C=C/C[C@H](O)CC(=O)O[C@@H](C[C@H](OC)[C@@H](C)CCC(=O)[C@@H](C)[C@H](O)[C@H](C)/C=C/N(C)C=O)[C@@H]1C` [32-HYDROXYMYCALOLIDE A] belongs 0.013 µg/mL (≈ 0.015 µM).
